Test results reported in ChEMBL document CHEMBL1275501, “Plasmid-mediated quinolone resistance pump QepA2 in an Escherichia coli isolate from France” (2008).
≈ marks a conversion by molar mass, not a printed value.

Assays:
Escherichia coli [1] = test: Antimicrobial activity against Escherichia coli BicA expressing blaTEM-1, blaCTX-M-15 and qepA2 gene by disk diffusion method
Escherichia coli [2] = test: Antimicrobial activity against azide-resistant Escherichia coli J53 harboring pCTX-M plasmid carrying blaCTX-M-15 gene by disk diffusion method; type: functional
Escherichia coli [3] = test: Antimicrobial activity against Escherichia coli TOP10 by disk diffusion method; type: functional
Escherichia coli [4] = test: Antimicrobial activity against azide-resistant Escherichia coli J53 harboring pCTX-M carrying blaCTX-M-15 and pQep plasmid carrying qepA2 gene by disk diffusion method; type: functional
Escherichia coli [5] = test: Antimicrobial activity against Escherichia coli TOP10 harboring pQep plasmid carrying qepA2 gene by disk diffusion method; type: functional
Escherichia coli [6] = test: Antimicrobial activity against azide-resistant Escherichia coli J53 by disk diffusion method; type: functional
Escherichia coli [7] = test: Antimicrobial activity against Escherichia coli TOP10 by disk diffusion method in presence of beta-lactamase inhibitor clavulanic acid; type: functional
Escherichia coli [8] = test: Antimicrobial activity against azide-resistant Escherichia coli J53 harboring pCTX-M plasmid carrying blaCTX-M-15 gene by disk diffusion method in presence of beta-lactamase inhibitor clavulanic acid; type: functional
Escherichia coli [9] = test: Antimicrobial activity against azide-resistant Escherichia coli J53 harboring pCTX-M carrying blaCTX-M-15 and pQep plasmid carrying qepA2 gene by disk diffusion method in presence of beta-lactamase inhibitor clavulanic acid; type: functional
Escherichia coli [10] = test: Antimicrobial activity against Escherichia coli TOP10 harboring pQep plasmid carrying qepA2 gene by disk diffusion method in presence of beta-lactamase inhibitor clavulanic acid; type: functional
Escherichia coli [11] = test: Antimicrobial activity against azide-resistant Escherichia coli J53 by disk diffusion method in presence of beta-lactamase inhibitor clavulanic acid; type: functional
Escherichia coli [12] = test: Antimicrobial activity against Escherichia coli BicA expressing blaTEM-1, blaCTX-M-15 and qepA2 gene by disk diffusion method in presence of beta-lactamase inhibitor clavulanic acid; type: functional
Escherichia coli [13] = test: Antimicrobial activity against Escherichia coli BicA expressing blaTEM-1, blaCTX-M-15 and qepA2 gene by disk diffusion method in presence of beta-lactamase inhibitor Tazobactam; type: functional
Escherichia coli [14] = test: Antimicrobial activity against azide-resistant Escherichia coli J53 by disk diffusion method in presence of beta-lactamase inhibitor Tazobactam; type: functional
Escherichia coli [15] = test: Antimicrobial activity against azide-resistant Escherichia coli J53 harboring pCTX-M plasmid carrying blaCTX-M-15 gene by disk diffusion method in presence of beta-lactamase inhibitor Tazobactam; type: functional
Escherichia coli [16] = test: Antimicrobial activity against azide-resistant Escherichia coli J53 harboring pCTX-M carrying blaCTX-M-15 and pQep plasmid carrying qepA2 gene by disk diffusion method in presence of beta-lactamase inhibitor Tazobactam; type: functional
Escherichia coli [17] = test: Antimicrobial activity against Escherichia coli TOP10 by disk diffusion method in presence of beta-lactamase inhibitor Tazobactam; type: functional
Escherichia coli [18] = test: Antimicrobial activity against Escherichia coli TOP10 harboring pQep plasmid carrying qepA2 gene by disk diffusion method in presence of beta-lactamase inhibitor Tazobactam; type: functional

SMILES	MIC (Escherichia coli [1])	MIC (Escherichia coli [2])	MIC (Escherichia coli [3])	MIC (Escherichia coli [4])	MIC (Escherichia coli [5])	MIC (Escherichia coli [6])	further results
C[C@H]1COc2c(N3CCN(C)CC3)c(F)cc3c(=O)c(C(=O)O)cn1c23.C[C@H]1COc2c(N3CCN(C)CC3)c(F)cc3c(=O)c(C(=O)O)cn1c23.O [LEVOFLOXACIN]	> 32 mg/L						
COc1c(N2CCNC(C)C2)c(F)cc2c(=O)c(C(=O)O)cn(C3CC3)c12 (centres undefined) [GATIFLOXACIN]	> 32 mg/L	0.06 mg/L (≈ 0.16 µM)	0.003 mg/L (≈ 0.00799 µM)	0.12 mg/L (≈ 0.32 µM)	0.01 mg/L (≈ 0.0266 µM)	0.01 mg/L (≈ 0.0266 µM)	
NCC[C@H](O)C(=O)N[C@@H]1C[C@H](N)[C@@H](O[C@H]2O[C@H](CN)[C@@H](O)[C@H](O)[C@H]2O)[C@H](O)[C@H]1O[C@H]1O[C@H](CO)[C@@H](O)[C@H](N)[C@H]1O [AMIKACIN]	2 mg/L (≈ 3.42 µM)	1 mg/L (≈ 1.71 µM)	1 mg/L (≈ 1.71 µM)	1 mg/L (≈ 1.71 µM)	1 mg/L (≈ 1.71 µM)	1 mg/L (≈ 1.71 µM)	
CC1(C)S[C@@H]2[C@H](NC(=O)[C@H](N)c3ccc(O)cc3)C(=O)N2[C@H]1C(=O)O [AMOXICILLIN]	> 256 mg/L	> 256 mg/L	4 mg/L (≈ 10.9 µM)	> 256 mg/L	> 256 mg/L	4 mg/L (≈ 10.9 µM)	MIC (Escherichia coli [7]): 4 mg/L; MIC (Escherichia coli [8]): 16 mg/L; MIC (Escherichia coli [9]): 16 mg/L; MIC (Escherichia coli [10]): 16 mg/L; MIC (Escherichia coli [11]): 4 mg/L; MIC (Escherichia coli [12]): 16 mg/L
CO[C@H]1/C=C/O[C@@]2(C)Oc3c(C)c(O)c4c(O)c(c(/C=N/N5CCN(C)CC5)c(O)c4c3C2=O)NC(=O)/C(C)=C\C=C\[C@H](C)[C@H](O)[C@@H](C)[C@@H](O)[C@@H](C)[C@H](OC(C)=O)[C@@H]1C [RIFAMPIN]	16 mg/L (≈ 19.4 µM)	8 mg/L (≈ 9.72 µM)	16 mg/L (≈ 19.4 µM)	8 mg/L (≈ 9.72 µM)	16 mg/L (≈ 19.4 µM)	8 mg/L (≈ 9.72 µM)	
CN(C)[C@@H]1C(O)=C(C(N)=O)C(=O)[C@@]2(O)C(O)=C3C(=O)c4c(O)cccc4[C@@](C)(O)[C@H]3C[C@@H]12 [TETRACYCLINE]	> 256 mg/L	2 mg/L (≈ 4.5 µM)	2 mg/L (≈ 4.5 µM)	2 mg/L (≈ 4.5 µM)	> 256 mg/L	2 mg/L (≈ 4.5 µM)	
CCN[C@@H]1C[C@H](N)[C@@H](O[C@H]2OC(CN)=CC[C@H]2N)[C@H](O)[C@H]1O[C@H]1OC[C@](C)(O)[C@H](NC)[C@H]1O [NETILMICIN]	0.5 mg/L (≈ 1.05 µM)	0.12 mg/L (≈ 0.252 µM)	0.25 mg/L (≈ 0.526 µM)	0.12 mg/L (≈ 0.252 µM)	0.25 mg/L (≈ 0.526 µM)	0.12 mg/L (≈ 0.252 µM)	
CC1COc2c(N3CCN(C)CC3)c(F)cc3c(=O)c(C(=O)O)cn1c23 (centres undefined) [OFLOXACIN]	> 32 mg/L						
C[C@@H](O)[C@H]1C(=O)N2C(C(=O)O)=C(SCCNC=N)C[C@H]12 [IMIPENEM ANHYDROUS]	0.5 mg/L (≈ 1.67 µM)	0.25 mg/L (≈ 0.835 µM)		0.25 mg/L (≈ 0.835 µM)		0.06 mg/L (≈ 0.2 µM)	
COc1cc(Cc2cnc(N)nc2N)cc(OC)c1OC [TRIMETHOPRIM]	> 256 mg/L	0.25 mg/L (≈ 0.861 µM)	0.12 mg/L (≈ 0.413 µM)	> 256 mg/L	> 256 mg/L	0.25 mg/L (≈ 0.861 µM)	
CCn1cc(C(=O)O)c(=O)c2ccc(C)nc21 [NALIDIXIC ACID]	> 256 mg/L	4 mg/L (≈ 17.2 µM)	1 mg/L (≈ 4.31 µM)	4 mg/L (≈ 17.2 µM)	1.5 mg/L (≈ 6.46 µM)	4 mg/L (≈ 17.2 µM)	
CCN1CCN(C(=O)N[C@@H](C(=O)N[C@@H]2C(=O)N3[C@@H]2SC(C)(C)[C@@H]3C(=O)O)c2ccccc2)C(=O)C1=O [PIPERACILLIN]	> 256 mg/L	> 256 mg/L	2 mg/L (≈ 3.86 µM)	> 256 mg/L	> 256 mg/L	2 mg/L (≈ 3.86 µM)	MIC (Escherichia coli [13]): 4 mg/L; MIC (Escherichia coli [14]): 1 mg/L; MIC (Escherichia coli [15]): 2 mg/L; MIC (Escherichia coli [16]): 2 mg/L; MIC (Escherichia coli [17]): 1 mg/L; MIC (Escherichia coli [18]): 2 mg/L
CC(C)(O/N=C(\C(=O)N[C@@H]1C(=O)N2C(C(=O)[O-])=C(C[n+]3ccccc3)CS[C@H]12)c1csc(N)n1)C(=O)O [CEFTAZIDIME]	> 32 mg/L	16 mg/L (≈ 29.3 µM)	0.06 mg/L (≈ 0.11 µM)	16 mg/L (≈ 29.3 µM)	0.12 mg/L (≈ 0.22 µM)	0.12 mg/L (≈ 0.22 µM)	
Cc1cc(NS(=O)(=O)c2ccc(N)cc2)no1 [SULFAMETHOXAZOLE]	> 256 mg/L	16 mg/L (≈ 63.2 µM)	16 mg/L (≈ 63.2 µM)	> 256 mg/L	> 256 mg/L	16 mg/L (≈ 63.2 µM)	
